Test results published in BindingDB's records for patent US20240352046 (1Cbio, 2024).

What follows are molecules tested against T1, Ectonucleotide pyrophosphatase/phosphodiesterase family member 1 (Homo sapiens, UniProt P22413) (assay: ENPP1 Inhibition Assay).
T1 sequence (P22413 whole entry): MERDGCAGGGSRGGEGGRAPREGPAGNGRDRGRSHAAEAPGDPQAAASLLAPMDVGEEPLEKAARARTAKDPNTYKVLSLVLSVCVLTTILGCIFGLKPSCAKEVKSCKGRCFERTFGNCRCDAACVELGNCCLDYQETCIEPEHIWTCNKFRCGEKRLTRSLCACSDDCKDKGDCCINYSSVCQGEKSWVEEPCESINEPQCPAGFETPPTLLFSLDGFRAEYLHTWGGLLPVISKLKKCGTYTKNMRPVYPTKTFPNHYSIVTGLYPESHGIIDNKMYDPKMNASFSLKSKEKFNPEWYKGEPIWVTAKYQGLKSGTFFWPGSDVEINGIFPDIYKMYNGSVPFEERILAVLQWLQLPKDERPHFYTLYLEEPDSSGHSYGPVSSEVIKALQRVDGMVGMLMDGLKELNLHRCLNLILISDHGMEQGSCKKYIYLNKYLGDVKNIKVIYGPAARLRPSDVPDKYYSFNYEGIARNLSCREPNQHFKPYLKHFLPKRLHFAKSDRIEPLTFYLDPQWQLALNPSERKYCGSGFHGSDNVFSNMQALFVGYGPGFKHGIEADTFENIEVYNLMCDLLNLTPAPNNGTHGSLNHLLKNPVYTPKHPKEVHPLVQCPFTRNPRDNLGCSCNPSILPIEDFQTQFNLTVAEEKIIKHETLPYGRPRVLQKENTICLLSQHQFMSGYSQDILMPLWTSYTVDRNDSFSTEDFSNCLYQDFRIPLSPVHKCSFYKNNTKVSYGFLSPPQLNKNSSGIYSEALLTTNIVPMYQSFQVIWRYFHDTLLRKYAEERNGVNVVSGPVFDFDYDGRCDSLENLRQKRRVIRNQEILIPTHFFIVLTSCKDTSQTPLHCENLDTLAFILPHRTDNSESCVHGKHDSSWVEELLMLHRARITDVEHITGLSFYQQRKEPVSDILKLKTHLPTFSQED
Protocol: Dose response curve for the compounds were prepared in duplicates with starting conc. at 5 μM and a three-fold titration was performed. The reaction buffer consisted of 50 mM Tris (pH 8.0), 0.5 mM CaCl2), 1 μM ZnCl2, 250 mM NaCl and 0.1 mg/ml BSA. […] The reaction was then stopped by heating at 90° C. for 3 minutes. […] Following 60 min incubation, 20 μL of detection mixture was added to the enzyme reaction bringing the final volume to 40 μL. The reaction was further incubated for 60 min at RT after which the plates were read using BioTek Plate reader.
`COc1ccc2c(N3CC(CCN(C)S(N)(=O)=O)C3)ncnc2c1` [US20240352046, Compound 1.40] showed an IC50 of 793 nM.
`COc1ccc2c(N3CC(CCNS(N)(=O)=O)C3)nc(C3CC3)nc2c1` [US20240352046, Compound 1.42] was tested, and the IC50 was > 3000 nM.
In the case of `COc1cc2nc(C(F)F)nc(N3CC(CCNS(N)(=O)=O)C3)c2cc1OC` [US20240352046, Compound 1.43], the IC50 is reported as 892 nM.
`COc1cc2ncnc(N3CC(CCN(C)S(N)(=O)=O)C3)c2cc1OC` [US20240352046, Compound 1.47] gave an IC50 of 855 nM.
